From patent publication US20230398153A1, “A METHOD FOR EFFICIENT MICROGLIA REPLACEMENT” (The Board of Trustees of the Leland Stanford Junior …, priority 2020, published 2023)

Test system: brain myeloid cells (CD45+CD11b+)
Assay: HSCT followed by PLX5622 treatment: donor (GFP+) myeloid chimerism in the brain by flow cytometry
Assay type: in vivo, mouse
Description: Microglia depletion after HSCT results in near complete replacement of microglia with bone marrow-derived cells throughout the entire brain. We next tested whether CSF1R inhibition after HSCT enhanced microglia replacement. We therefore performed conventional HSCT with GFP-labeled fresh bone marrow cells. After 28 days, we treated the experimental group with PLX5622 for 10 days and the control group received no drug (FIG. 2A). After another 10 days (7 weeks post transplant) we analyzed the brains and consistently found over 90% of all brain myeloid cells to be GFP^+ by flow cytometry (FIG. 2B, C). […] The transplanted CDMCs had homogeneously populated the entire brain (FIG. 2E). Importantly, this high chimerism was stable and CDMCs remained incorporated for at least 6 months after transplantation (FIG. 2C, 9E).
PLX5622 was provided by Plexxikon Inc. and incorporated to AIN-76A standard chow by Research Diets Inc. at 1200 mg/kg.
Unless otherwise noted, we used female mice at age of 8-12 weeks for both recipients and donors. WT mice were pre-treated with PLX5622 diet between day-21 and day −1 (21 days) and/or busulfan between day-6 and −2 day (5 days). For busulfan pre-treatment, mice received five intraperitoneal (IP) injections of busulfan (sigma, B1 170000) at 25 mg/kg body weight per day. On day 0, bone marrow cells (BMCs) were isolated from tibias and femurs of UBC-GFP mice. Isolated BMCs were resuspended in 1×red blood cell lysis buffer (e-bioscience, 00-4300-54) and incubated for 20 min at room temperature. BMCs were passed through 70 μm cell strainer, washed by applying 10 ml of ice cold PBS and then resuspended in fresh PBS. BMCs (5×10^6) in 200 ul PBS were injected into the retro-orbital sinus of the pre-conditioned recipients. On day 28, the recipient mice were treated with PLX5622 or control diet for 10 days. For tamoxifen injection, tamoxifen (sigma T5648) in corn oil (sigma, C8267) was provided by IP injection to the recipient mice at 200 mg/kg at the indicated time points after bone marrow transplantation.
Microglia cells were isolated from adult mouse brains as described (Shibuya et al., 2014). Anesthetized mice (100 mg/kg of ketamin and 10 mg/kg of xylazine, i.p.) were perfused through the left ventricle with ice-cold PBS without Ca^2+ and Mg^2+. Brains were removed and cut into two pieces along the midline. One hemisphere was immediately transferred to 4% paraformaldehyde for fixation. The other hemi-sphere was minced with a surgical knife, and then transferred to ice-cold HBSS without Ca^2+ and Mg^2+. Minced hemi-brains were centrifuged at 300×g for 2 min at room temperature and then enzymatically digested at 37° C. for 35 min by using Neural Tissue Dissociation Kit (Miltenyi Biotec, 130-092-628) according to the manufacturer's protocol. The cell suspension was passed through a 70 µm cell strainer and washed by applying 10 ml of HBSS with Ca^2+ and Mg^2+ to the strainer. The cell suspension was centrifuged at 300×g for 10 min at room temperature, re-suspended in 30% Percoll (GE Healthcare Lifesciences, 17089102), and then centrifuged at 700×g for 10 min at 4° C. The supernatant containing the myelin was removed and the pellet was washed with 10 ml of HBSS with Ca^2+ and Mg^2+. The resulting pellet was resuspended in FACS buffer and subjected to antibody staining for flow cytometry. Microglia/CDMCs were identified using anti-CD45 and anti-CD11b antibodies.
The following FACS antibodies were used in this study. CD11b (clone M1/70, BioLegend), CD45 (Clone 30-F11, BD biosciences), F4/80 (clone BM8, biolegend), CCR2 (clone SA203G11, biolegend), gp49A/B (clone H1.1), CD115 (CSF1R) (clone AFS98, biolegend), CD117 (c-kit) (clone 2B8, BD biosciences), sca-1 (clone D7, biolegend), cd127 (IL7Ra)(clone SB/199, biolegend), CD16/CD32 (FcR Ill/II) (clone 93, biolegend), CX3CR1 (clone K0124E1, biolegend), cd135 (Flk-2,)(clone A2F10) CD34 (clone561, biolegend), and Ly6C (clone RB6-8C5). […]

## COc1ncc(F)cc1CNc1ccc(Cc2c[nH]c3ncc(C)cc23)c(F)n1 [PLX5622]
PLX5622 between days 14 and 24 after HSCT, flow cytometry on D34
  engraftment of CDMCs into the brain: comparably robust and efficient engraftment
PLX5622 pre-treatment before HSCT (busulfan+PLX5622 group), 14 days post IV injection
  fraction of GFP+ cells among brain myeloid cells: only a marginal increase
PLX5622 treatment following HSCT, cortex, d83
  expression of microglia-specific marker TMEM119 in CDMCs: induced expression of the microglia-specific marker TMEM119 in CDMCs
After transplantation, PLX5622 10 days from D28
  duration CDMCs remained incorporated (stable high chimerism): at least 6 months
Busulfan HSCT, PLX5622 10 days from D28, analysed after another 10 days (7 weeks post transplant)
  brain myeloid cells GFP+ by flow cytometry: over 90%
Flow cytometry during treatment after HSCT
  CDMCs (GFP+) and microglia (GFP-) numbers during PLX5622 treatment: both cell populations were diminished to similar degrees
